Measured values as given in patent US20250177399A1, “COMBINATION THERAPIES” (MIRATI THERAPEUTICS, INC., priority 2021, published 2025).
Where two headings read alike, the source gives them in different places.

Tests used:
[1] = tested on: H2122 tumors; conditions: for Average Tumor Volumes of H2122 Tumor Bearing Mice: Compound 478 100 mg/kg, trametinib 1 mg/kg
Protocol: Immunocompromised nude/nude mice were inoculated in the right hind flank with cells or patient derived tumor samples harboring a KRas G12C mutation. When tumor volumes reach between 200-400 mm^3 in size, the mice were divided into four groups of 5-12 mice each. The first group was administered vehicle only. […] The fourth group was orally administered the single agent dose of the KRas G12C inhibitor in combination with the single agent dose of the MEK inhibitor at the matched schedule. […] Tumor volumes were measured using a caliper every two-three days and tumor volumes are calculated by the formula: […].
For example, twenty nude/nude mice were inoculated in the right hind limb with 5×10^6 H2122 cells.

[2] = tested on: LU99 tumors; experiment: LU99 tumor model, Compound 478 and RO5126766 alone and in combination; type: in vivo, nude/nude mice; conditions: for Average Tumor Volumes of LU99 Tumor Bearing Mice: p.o. daily, Compound 478 30 mg/kg
Protocol: (§1) Immunocompromised nude/nude mice were inoculated in the right hind flank with cells or patient derived tumor samples harboring a KRas G12C mutation. When tumor volumes reach between 200-400 mm^3 in size, the mice were divided into four groups of 5-12 mice each. The first group was administered vehicle only. […] The fourth group was orally administered the single agent dose of the KRas G12C inhibitor in combination with the single agent dose of the MEK inhibitor at the matched schedule. […] Tumor volumes were measured using a caliper every two-three days and tumor volumes are calculated by the formula: 0.5×(Length×Width)2.

[3] = tested on: H2122 tumors; experiment: H2122 tumor model, Compound 478 and RO5126766 alone and in combination; type: in vivo, nude/nude mice; conditions: Compound 478 100 mg/kg p.o daily, RO5126766 0.3 mg/kg p.o Q2D; for tumor growth inhibition: H2122 tumors, at Day 21
Protocol: as §1

[4] = tested on: SW1573 tumors; experiment: SW1573 tumor model, Compound 478 and RO5126766 alone and in combination; type: in vivo, nude/nude mice; conditions: Compound 478 100 mg/kg p.o daily, RO5126766 0.3 mg/kg p.o Q2D; for tumor growth inhibition: SW1573 tumors, at Day 20
Protocol: as §1

[5] = Study Day 1, RO5126766 0.3 mg/kg
[6] = Study Day 4, RO5126766 0.3 mg/kg
[7] = Study Day 9, RO5126766 0.3 mg/kg
[8] = Study Day 12, RO5126766 0.3 mg/kg
[9] = Study Day 15, RO5126766 0.3 mg/kg
[10] = Study Day 18, RO5126766 0.3 mg/kg

CC(=O)Nc1cccc(-n2c(=O)n(C3CC3)c(=O)c3c(Nc4ccc(I)cc4F)n(C)c(=O)c(C)c32)c1 [Trametinib, N-(3-(3-cyclopropyl-5-((2-fluoro-4-iodophenyl)amino)-6,8-dimethyl-2,4,7-trioxo-3,4,6,7-tetrahydropyrido[4,3-d]pyrimidin-1 (2H)-yl)phenyl) acetamide, reference compound]
tumor growth inhibition ([1]; H2122 tumors, at Day 32, trametinib 1 mg/kg p.o. daily): 60% | Average Tumor Volumes of H2122 Tumor Bearing Mice ([1]; Study Day 1, p.o. daily): 301 mm^3 | Average Tumor Volumes of H2122 Tumor Bearing Mice ([1]; Study Day 3, p.o. daily): 385 mm^3 | Average Tumor Volumes of H2122 Tumor Bearing Mice ([1]; Study Day 7, p.o. daily): 447 mm^3 | Average Tumor Volumes of H2122 Tumor Bearing Mice ([1]; Study Day 10, p.o. daily): 462 mm^3 | Average Tumor Volumes of H2122 Tumor Bearing Mice ([1]; Study Day 15, p.o. daily): 534 mm^3 | Average Tumor Volumes of H2122 Tumor Bearing Mice ([1]; Study Day 17, p.o. daily): 582 mm^3 | Average Tumor Volumes of H2122 Tumor Bearing Mice ([1]; Study Day 21, p.o. daily): 667 mm^3 | Average Tumor Volumes of H2122 Tumor Bearing Mice ([1]; Study Day 24, p.o. daily): 778 mm^3 | Average Tumor Volumes of H2122 Tumor Bearing Mice ([1]; Study Day 28, p.o. daily): 673 mm^3 | Average Tumor Volumes of H2122 Tumor Bearing Mice ([1]; Study Day 32, p.o. daily): 816 mm^3

CNS(=O)(=O)Nc1nccc(Cc2c(C)c3ccc(Oc4ncccn4)cc3oc2=O)c1F [RO5126766, 3-[[3-fluoro-2-(methylsulfamoylamino)pyridin-4-yl]methyl]-4-methyl-7-pyrimidin-2-yloxychromen-2-one, reference compound]
tumor regression ([2]; LU99 tumors, at Day 18, RO5126766 0.3 mg/kg, Compound 478 30 mg/kg p.o. daily): 12% | Average Tumor Volumes of LU99 Tumor Bearing Mice [2, 5]: 232.1134 mm^3 | Average Tumor Volumes of LU99 Tumor Bearing Mice [2, 6]: 247.33 mm^3 | Average Tumor Volumes of LU99 Tumor Bearing Mice [2, 7]: 158.14 mm^3 | Average Tumor Volumes of LU99 Tumor Bearing Mice [2, 8]: 126.8378 mm^3 | Average Tumor Volumes of LU99 Tumor Bearing Mice [2, 9]: 181.1358 mm^3 | Average Tumor Volumes of LU99 Tumor Bearing Mice [2, 10]: 200.6461 mm^3 | tumor growth inhibition [3]: 59% | Average Tumor Volumes of H2122 Tumor Bearing Mice ([3]; Study Day 0): 212.4101 mm^3 | Average Tumor Volumes of H2122 Tumor Bearing Mice ([3]; Study Day 2): 327.3898 mm^3 | Average Tumor Volumes of H2122 Tumor Bearing Mice ([3]; Study Day 7): 463.4062 mm^3 | Average Tumor Volumes of H2122 Tumor Bearing Mice ([3]; Study Day 9): 474.4923 mm^3 | Average Tumor Volumes of H2122 Tumor Bearing Mice ([3]; Study Day 14): 504.5922 mm^3 | Average Tumor Volumes of H2122 Tumor Bearing Mice ([3]; Study Day 17): 576.573 mm^3 | Average Tumor Volumes of H2122 Tumor Bearing Mice ([3]; Study Day 21): 772.6155 mm^3 | tumor growth inhibition [4]: 51% | Average Tumor Volumes of SW1573 Tumor Bearing Mice ([4]; Study Day 0): 249.5609 mm^3 | Average Tumor Volumes of SW1573 Tumor Bearing Mice ([4]; Study Day 3): 280.2067 mm^3 | Average Tumor Volumes of SW1573 Tumor Bearing Mice ([4]; Study Day 7): 299.7596 mm^3 | Average Tumor Volumes of SW1573 Tumor Bearing Mice ([4]; Study Day 10): 395.0633 mm^3 | Average Tumor Volumes of SW1573 Tumor Bearing Mice ([4]; Study Day 13): 458.1809 mm^3 | Average Tumor Volumes of SW1573 Tumor Bearing Mice ([4]; Study Day 17): 469.133 mm^3 | Average Tumor Volumes of SW1573 Tumor Bearing Mice ([4]; Study Day 20): 480.1852 mm^3

C=C(F)C(=O)N1CCN(c2nc(OC[C@@H]3CCCN3C)nc3c2CCN(c2cccc4cccc(Cl)c24)C3)C[C@@H]1CC#N [Compound 478]
tumor growth regression ([1]; H2122 tumors, day not given, Compound 478 100 mg/kg p.o. daily): 12% | Average Tumor Volumes of H2122 Tumor Bearing Mice ([1]; Study Day 1, p.o. daily): 315 mm^3 | Average Tumor Volumes of H2122 Tumor Bearing Mice ([1]; Study Day 7, p.o. daily): 233 mm^3 | Average Tumor Volumes of H2122 Tumor Bearing Mice ([1]; Study Day 21, p.o. daily): 270 mm^3 | Average Tumor Volumes of H2122 Tumor Bearing Mice ([1]; Study Day 24, p.o. daily): 254 mm^3 | Average Tumor Volumes of H2122 Tumor Bearing Mice ([1]; Study Day 32, p.o. daily): 287 mm^3 | Average Tumor Volumes of H2122 Tumor Bearing Mice ([1]; Study Day 35, p.o. daily): 305 mm^3 | Average Tumor Volumes of H2122 Tumor Bearing Mice ([1]; Study Day 38, p.o. daily): 324 mm^3 | Average Tumor Volumes of H2122 Tumor Bearing Mice ([1]; Study Day 42, p.o. daily): 353 mm^3 | Average Tumor Volumes of H2122 Tumor Bearing Mice ([1]; Study Day 45, p.o. daily): 378 mm^3 | Average Tumor Volumes of H2122 Tumor Bearing Mice ([1]; Study Day 49, p.o. daily): 337 mm^3 | Average Tumor Volumes of H2122 Tumor Bearing Mice ([1]; Study Day 56, p.o. daily, dosing stopped on day 56): 371 mm^3 | Average Tumor Volumes of H2122 Tumor Bearing Mice ([1]; Study Day 63, after dosing stopped on day 56): 542 mm^3 | Average Tumor Volumes of H2122 Tumor Bearing Mice ([1]; Study Day 70, after dosing stopped on day 56): 802 mm^3 | Average Tumor Volumes of H2122 Tumor Bearing Mice ([1]; Study Day 77, after dosing stopped on day 56): 1073 mm^3 | Average Tumor Volumes of H2122 Tumor Bearing Mice ([1]; Study Day 85, after dosing stopped on day 56): 1294 mm^3 | tumor growth inhibition ([2]; LU99 tumors, Day 18, Compound 478 30 mg/kg p.o. daily): 81% | Average Tumor Volumes of LU99 Tumor Bearing Mice [2, 5]: 228.8452 mm^3 | Average Tumor Volumes of LU99 Tumor Bearing Mice [2, 6]: 282.5161 mm^3 | Average Tumor Volumes of LU99 Tumor Bearing Mice [2, 7]: 219.8962 mm^3 | Average Tumor Volumes of LU99 Tumor Bearing Mice [2, 8]: 252.5981 mm^3 | Average Tumor Volumes of LU99 Tumor Bearing Mice [2, 9]: 416.0955 mm^3 | Average Tumor Volumes of LU99 Tumor Bearing Mice [2, 10]: 495.1032 mm^3 | tumor growth inhibition [3]: 91% | Average Tumor Volumes of H2122 Tumor Bearing Mice ([3]; Study Day 0): 213.447 mm^3 | Average Tumor Volumes of H2122 Tumor Bearing Mice ([3]; Study Day 2): 229.5648 mm^3 | Average Tumor Volumes of H2122 Tumor Bearing Mice ([3]; Study Day 7): 285.0973 mm^3 | Average Tumor Volumes of H2122 Tumor Bearing Mice ([3]; Study Day 9): 326.5344 mm^3 | Average Tumor Volumes of H2122 Tumor Bearing Mice ([3]; Study Day 14): 319.1401 mm^3 | Average Tumor Volumes of H2122 Tumor Bearing Mice ([3]; Study Day 17): 378.2042 mm^3 | tumor growth inhibition [4]: 52% | Average Tumor Volumes of SW1573 Tumor Bearing Mice ([4]; Study Day 0): 145.1243 mm^3 | Average Tumor Volumes of SW1573 Tumor Bearing Mice ([4]; Study Day 3): 201.0648 mm^3 | Average Tumor Volumes of SW1573 Tumor Bearing Mice ([4]; Study Day 7): 253.1608 mm^3 | Average Tumor Volumes of SW1573 Tumor Bearing Mice ([4]; Study Day 10): 365.7683 mm^3 | Average Tumor Volumes of SW1573 Tumor Bearing Mice ([4]; Study Day 13): 394.367 mm^3 | Average Tumor Volumes of SW1573 Tumor Bearing Mice ([4]; Study Day 17): 486.729 mm^3 | Average Tumor Volumes of SW1573 Tumor Bearing Mice ([4]; Study Day 20): 534.3942 mm^3
